# Patent US10543212B2, “Substituted amines for treating cardiac diseases” (Cardurion Pharmaceuticals, LLC, priority 2017, dated 2020)
# Structures can show the parent of a compound that is named as a salt.
# Molecular target: T1, Full-length, GST-tagged, human CaMKIIδ (Homo sapiens, UniProt Q13557)
# T1 construct: Full-Length, Glutathione-S-Transferase(GST)-Tagged, Human CaMKIIδ was purchased from Carna Biosciences; purchased Carna Biosciences 02-111
# Assay: CaMKIIδ binding assay (TR-FRET with BODIPY-labeled probe ligand)
# Details: Table 2; CaMKIIδ binding assay, activity given as class A/B/C
# Summary of the method: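 TR-FRET probe-displacement binding: 0.5 nM GST-CaMKIIδ with 10 μg/mL calmodulin, 1 mM CaCl2, 0.21 nM Tb-anti-GST Ab and 300 nM BODIPY probe in HEPES pH 7.6 buffer. Eight-point 4-fold dilutions, 1 hr at room temperature. IC50 from logistic fit; 100% inhibition defined by 3 μM parent compound.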
# T1 sequence (Q13557 1-478 isoform Q13557-12): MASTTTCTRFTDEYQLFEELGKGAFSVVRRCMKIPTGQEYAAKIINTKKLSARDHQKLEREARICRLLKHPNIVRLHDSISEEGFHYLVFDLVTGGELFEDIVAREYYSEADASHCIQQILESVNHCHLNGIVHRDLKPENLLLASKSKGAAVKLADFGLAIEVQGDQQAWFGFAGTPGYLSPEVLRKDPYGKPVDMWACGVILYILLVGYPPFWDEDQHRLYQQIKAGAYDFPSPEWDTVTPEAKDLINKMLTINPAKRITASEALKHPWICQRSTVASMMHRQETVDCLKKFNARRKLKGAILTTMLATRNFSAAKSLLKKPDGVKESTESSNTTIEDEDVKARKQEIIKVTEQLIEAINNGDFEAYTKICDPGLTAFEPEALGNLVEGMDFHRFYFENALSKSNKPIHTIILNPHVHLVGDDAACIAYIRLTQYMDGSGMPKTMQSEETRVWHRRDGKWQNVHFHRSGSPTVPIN
row,SMILES,IC50 [nM]
1,"C[C@@H](Cn1cnnn1)Oc1cc(-c2cnc(Nc3cn([C@H]4CC[C@@H](N5CC(C)(O)C5)CC4)nc3C(F)(F)F)nc2)ccc1Cl [Example 803, 1-(cis-4-(4-((5-(3-(((S)-1-(1H-tetrazol-1-yl)propan-2-yl)oxy)-4-chlorophenyl)pyrimidin-2-yl)amino)-3-(trifluoromethyl)-1H-pyrazol-1-yl)cyclohexyl)-3-methylazetidin-3-ol]",< 10
2,"C[C@@H](Cn1cnnn1)Oc1cc(-c2cnc(Nc3cn([C@H]4CC[C@H](N5CC(C)(O)C5)CC4)nc3C(F)(F)F)nc2)ccc1Cl [Example 804, 1-(trans-4-(4-((5-(3-(((S)-1-(1H-tetrazol-1-yl)propan-2-yl)oxy)-4-chlorophenyl)pyrimidin-2-yl)amino)-3-(trifluoromethyl)-1H-pyrazol-1-yl)cyclohexyl)-3-methylazetidin-3-ol]",< 10
3,"C[C@@H](Cn1cnnn1)Oc1cc(-c2cnc(Nc3cn([C@H]4CC[C@@H](N5CCOCC5)CC4)nc3OCC(F)F)nc2)ccc1Cl [Example 805, 5-(3-(((S)-1-(1H-tetrazol-1-yl)propan-2-yl)oxy)-4-chlorophenyl)-N-(3-(2,2-difluoroethoxy)-1-(cis-4-morpholinocyclohexyl)-1H-pyrazol-4-yl)pyrimidin-2-amine]",< 10
4,"C[C@@H](Cn1cnnn1)Oc1cc(-c2cnc(Nc3cn([C@H]4CC[C@@H](N5CCOCC5)CC4)nc3C(F)(F)F)nc2)ccc1F [Example 807, 5-(3-(((S)-1-(1H-tetrazol-1-yl)propan-2-yl)oxy)-4-fluorophenyl)-N-(1-(cis-4-morpholinocyclohexyl)-3-(trifluoromethyl)-1H-pyrazol-4-yl)pyrimidin-2-amine]",10 to 100
5,"C[C@@H](Cn1cnnn1)Oc1cc(-c2cnc(Nc3cn([C@H]4CC[C@H](N5CCOCC5)CC4)nc3C(F)(F)F)nc2)ccc1F [Example 808, 5-(3-(((S)-1-(1H-tetrazol-1-yl)propan-2-yl)oxy)-4-fluorophenyl)-N-(1-(trans-4-morpholinocyclohexyl)-3-(trifluoromethyl)-1H-pyrazol-4-yl)pyrimidin-2-amine]",< 10
6,"Cc1ccc(-c2cnc(Nc3cn([C@H]4CC[C@@H](N5CCOCC5)CC4)nc3C(F)(F)F)nc2)cc1O[C@@H](C)Cn1cnnn1 [Example 809, 5-(3-(((S)-1-(1H-tetrazol-1-yl)propan-2-yl)oxy)-4-methylphenyl)-N-(1-(cis-4-morpholinocyclohexyl)-3-(trifluoromethyl)-1H-pyrazol-4-yl)pyrimidin-2-amine]",10 to 100
7,"Cc1ccc(-c2cnc(Nc3cn([C@H]4CC[C@H](N5CCOCC5)CC4)nc3C(F)(F)F)nc2)cc1O[C@@H](C)Cn1cnnn1 [Example 810, 5-(3-(((S)-1-(1H-tetrazol-1-yl)propan-2-yl)oxy)-4-methylphenyl)-N-(1-(trans-4-morpholinocyclohexyl)-3-(trifluoromethyl)-1H-pyrazol-4-yl)pyrimidin-2-amine]",< 10
8,"Cc1ccc(-c2cnc(Nc3cn([C@H]4CC[C@H](N5CCOCC5)CC4)nc3OCC(F)(F)F)nc2)cc1O[C@@H](C)Cn1cnnn1 [Example 811, 5-(3-(((S)-1-(1H-tetrazol-1-yl)propan-2-yl)oxy)-4-methylphenyl)-N-(1-(trans-4-morpholinocyclohexyl)-3-(2,2,2-trifluoroethoxy)-1H-pyrazol-4-yl)pyrimidin-2-amine]",< 10
9,"Cc1ccc(-c2cnc(Nc3cn([C@H]4CC[C@@H](N5CCOCC5)CC4)nc3OCC(F)(F)F)nc2)cc1O[C@@H](C)Cn1cnnn1 [Example 812, 5-(3-(((S)-1-(1H-tetrazol-1-yl)propan-2-yl)oxy)-4-methylphenyl)-N-(1-(cis-4-morpholinocyclohexyl)-3-(2,2,2-trifluoroethoxy)-1H-pyrazol-4-yl)pyrimidin-2-amine]",< 10
10,"C[C@@H](Cn1cnnn1)Oc1cc(-c2cnc(Nc3cn([C@H]4CC[C@H](N5CCOCC5)CC4)nc3OCC(F)(F)F)nc2)ccc1F [Example 813, 5-(3-(((S)-1-(1H-tetrazol-1-yl)propan-2-yl)oxy)-4-fluorophenyl)-N-(1-(trans-4-morpholinocyclohexyl)-3-(2,2,2-trifluoroethoxy)-1H-pyrazol-4-yl)pyrimidin-2-amine]",< 10
11,"C[C@@H](Cn1cnnn1)Oc1cc(-c2cnc(Nc3cn([C@H]4CC[C@@H](N5CCOCC5)CC4)nc3OCC(F)(F)F)nc2)ccc1F [Example 814, 5-(3-(((S)-1-(1H-tetrazol-1-yl)propan-2-yl)oxy)-4-fluorophenyl)-N-(1-(cis-4-morpholinocyclohexyl)-3-(2,2,2-trifluoroethoxy)-1H-pyrazol-4-yl)pyrimidin-2-amine]",10 to 100
12,"CC(C)N1CC2(CC(n3cc(Nc4ncc(-c5ccc(Cl)c(O[C@@H](C)Cn6cnnn6)c5)cn4)c(OCC(F)(F)F)n3)C2)C1 [Example 815, (S)-5-(3-((1-(1H-tetrazol-1-yl)propan-2-yl)oxy)-4-chlorophenyl)-N-(1-(2-isopropyl-2-azaspiro[3.3]heptan-6-yl)-3-(2,2,2-trifluoroethoxy)-1H-pyrazol-4-yl)pyrimidin-2-amine]",< 10
13,"C[C@@H](Cn1cnnn1)Oc1cc(-c2cnc(Nc3cn(CC(C)(C)O)nc3OCC(F)(F)F)nc2)ccc1Cl [Example 816, (S)-1-(4-((5-(3-((1-(1H-tetrazol-1-yl)propan-2-yl)oxy)-4-chlorophenyl)pyrimidin-2-yl)amino)-3-(2,2,2-trifluoroethoxy)-1H-pyrazol-1-yl)-2-methylpropan-2-ol]",< 10
14,"C[C@@H](Cn1cnnn1)Oc1cc(-c2cnc(Nc3cn([C@H]4CC[C@H](N5CCOCC5)CC4)nc3OCC(F)(F)F)nc2)ccc1C#N [Example 817, 2-(((S)-1-(1H-tetrazol-1-yl)propan-2-yl)oxy)-4-(2-((1-(trans-4-morpholinocyclohexyl)-3-(2,2,2-trifluoroethoxy)-1H-pyrazol-4-yl)amino)pyrimidin-5-yl)benzonitrile hydrochloride]",< 10
15,"C[C@@H](Cn1cnnn1)Oc1cc(-c2cnc(Nc3cn([C@H]4CC[C@@H](N5CCOCC5)CC4)nc3OCC(F)(F)F)nc2)ccc1C#N [Example 818, 2-(((S)-1-(1H-tetrazol-1-yl)propan-2-yl)oxy)-4-(2-((1-(cis-4-morpholinocyclohexyl)-3-(2,2,2-trifluoroethoxy)-1H-pyrazol-4-yl)amino)pyrimidin-5-yl)benzonitrile]",< 10
16,"C[C@@H](Cn1cc(F)cn1)Oc1cc(-c2cnc(Nc3cn(C4CCN(C5CCOCC5)CC4)nc3OCC(F)(F)F)nc2)ccc1C#N [Example 819, (S)-2-((1-(4-fluoro-1H-pyrazol-1-yl)propan-2-yl)oxy)-4-(2-((1-(1-(tetrahydro-2H-pyran-4-yl)piperidin-4-yl)-3-(2,2,2-trifluoroethoxy)-1H-pyrazol-4-yl)amino)pyrimidin-5-yl)benzonitrile]",10 to 100
17,"C[C@@H](Cn1cnnn1)Oc1cc(-c2cnc(Nc3cn([C@H]4CC[C@@H](N5CCOCC5)CC4)nc3OC3COC3)nc2)ccc1Cl [Example 820, 5-(3-(((S)-1-(1H-tetrazol-1-yl)propan-2-yl)oxy)-4-chlorophenyl)-N-(1-(cis-4-morpholinocyclohexyl)-3-(oxetan-3-yloxy)-1H-pyrazol-4-yl)pyrimidin-2-amine]",< 10
18,"C[C@@H](Cn1cnnn1)Oc1cc(-c2cnc(Nc3cn([C@H]4CC[C@H](N5CCOCC5)CC4)nc3OC3COC3)nc2)ccc1Cl [Example 821, 5-(3-(((S)-1-(1H-tetrazol-1-yl)propan-2-yl)oxy)-4-chlorophenyl)-N-(1-(trans-4-morpholinocyclohexyl)-3-(oxetan-3-yloxy)-1H-pyrazol-4-yl)pyrimidin-2-amine]",< 10
19,"C[C@@H](Cn1cnnn1)Oc1cc(-c2cnc(Nc3cn([C@H]4CC[C@H](N5CC6(COC6)C5)CC4)nc3C(F)(F)F)nc2)ccc1Cl [Example 822, 5-(3-(((S)-1-(1H-tetrazol-1-yl)propan-2-yl)oxy)-4-chlorophenyl)-N-(1-(trans-4-(2-oxa-6-azaspiro[3.3]heptan-6-yl)cyclohexyl)-3-(trifluoromethyl)-1H-pyrazol-4-yl)pyrimidin-2-amine]",< 10
20,"C[C@@H](Cn1cnnn1)Oc1cc(-c2cnc(Nc3cn([C@H]4CC[C@@H](N5CC6(COC6)C5)CC4)nc3C(F)(F)F)nc2)ccc1Cl [Example 823, 5-(3-(((S)-1-(1H-tetrazol-1-yl)propan-2-yl)oxy)-4-chlorophenyl)-N-(1-(cis-4-(2-oxa-6-azaspiro[3.3]heptan-6-yl)cyclohexyl)-3-(trifluoromethyl)-1H-pyrazol-4-yl)pyrimidin-2-amine]",< 10
21,"C[C@@H](Cn1cnnn1)Oc1cc(-c2cnc(Nc3cn(C4CCNCC4)nc3OCCF)nc2)ccc1Cl [Example 824, (S)-5-(3-((1-(1H-tetrazol-1-yl)propan-2-yl)oxy)-4-chlorophenyl)-N-(3-(2-fluoroethoxy)-1-(piperidin-4-yl)-1H-pyrazol-4-yl)pyrimidin-2-amine]",< 10
22,"C[C@@H](Cn1cnnn1)Oc1cc(-c2cnc(Nc3cn(C4CCN(C5CCOCC5)CC4)nc3OCCF)nc2)ccc1Cl [Example 825, (S)-5-(3-((1-(1H-tetrazol-1-yl)propan-2-yl)oxy)-4-chlorophenyl)-N-(3-(2-fluoroethoxy)-1-(1-(tetrahydro-2H-pyran-4-yl)piperidin-4-yl)-1H-pyrazol-4-yl)pyrimidin-2-amine]",< 10
23,"C[C@@H](Cn1cnnn1)Oc1cc(-c2cnc(Nc3cn(C4CCN(C5CCC5)CC4)nc3OCCF)nc2)ccc1Cl [Example 826, (S)-5-(3-((1-(1H-tetrazol-1-yl)propan-2-yl)oxy)-4-chlorophenyl)-N-(1-(1-cyclobutylpiperidin-4-yl)-3-(2-fluoroethoxy)-1H-pyrazol-4-yl)pyrimidin-2-amine]",< 10
